Experimental data taken from the supplement of paper PMC10883282.
Where a name gives a salt, the structure may show the parent alone. ± gives the standard deviation of the averaged measurements.

Test system: SW684
Experiment: relative viability vs DMSO control (72 h) (fraction); higher = more viable cells
Outline: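 Sarcoma cell lines were plated in 384 wells to reach 80–90% confluence, treated after 24 h with 2.5 µl of serially diluted compound and held 72 h at 37 °C, 5% CO2. Relative viability was taken as percent growth from ATPLite readings, averaged over up to triplicate wells. The values were rescaled so that 1 marks full and 0 marks none.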

SMILES	relative viability (0.00017 µM)	relative viability (0.00051 µM)	relative viability (0.00152 µM)	relative viability (0.00457 µM)	relative viability (0.01372 µM)	relative viability (0.04115 µM)	relative viability (0.1235 µM)	relative viability (0.3704 µM)	relative viability (1.111 µM)	relative viability (3.333 µM)	relative viability (10 µM)
O=C(Nc1cnn2ccc(N3CCC[C@@H]3c3cc(F)ccc3F)nc12)N1CC[C@H](O)C1 [Larotrectinib]	1.13 ± 0.057	1.19 ± 0.071	1.19 ± 0.044	1.16 ± 0.025	1.2 ± 0.073	1.15 ± 0.05	1.14 ± 0.043	1.17 ± 0.084	1.16 ± 0.021	1.09 ± 0.069	1.1 ± 0.04
C[C@@H]1COCCN1c1cc(-c2ccnn2C)c2ccnc(-c3ccn[nH]3)c2n1	1.14 ± 0.056	1.19 ± 0.041	1.18 ± 0.085	1.17 ± 0.069	1.14 ± 0.082	1.06 ± 0.056	1.04 ± 0.048	0.919 ± 0.036	0.719 ± 0.039	0.461 ± 0.023	0.367 ± 0.01
CC(C)N1CCN(Cc2cnc(-c3cc(-c4cccc5[nH]ccc45)cc4[nH]ncc34)o2)CC1 [Nemiralisib]	1 ± 0.084	0.911 ± 0.069	0.851 ± 0.033	0.804 ± 0.014	0.721 ± 0.019	0.68 ± 0.051	0.695 ± 0.011	0.618 ± 0.03	0.541 ± 0.035	0.548 ± 0.027	0.444 ± 0.043
COc1cccc2c1C(=O)c1c(O)c3c(c(O)c1C2=O)C[C@@](O)(C(=O)CO)C[C@@H]3O[C@H]1C[C@H](N)[C@H](O)[C@H](C)O1 [Doxorubicin Hydrochloride]	1.21 ± 0.03	1.21 ± 0.023	1.2 ± 0.058	1.157 ± 0.0079	1.06 ± 0.044	0.96 ± 0.031	0.821 ± 0.062	0.731 ± 0.14	0.813 ± 0.013	0.803 ± 0.033	0.693 ± 0.024
Nc1cc(C(F)(F)F)c(-c2cc(N3CCOCC3)nc(N3CCOCC3)n2)cn1 [Buparlisib]	1.12 ± 0.044	1.14 ± 0.075	1.11 ± 0.047	1.11 ± 0.04	1.08 ± 0.049	1.09 ± 0.077	1.03 ± 0.016	0.9 ± 0.055	0.599 ± 0.041	0.38 ± 0.022	0.282 ± 0.0065
Cc1cc(Nc2ncnc3ccc(NC4=NC(C)(C)CO4)cc23)ccc1Oc1ccn2ncnc2c1 [Tucatinib]	1.17 ± 0.019	1.2 ± 0.024	1.2 ± 0.024	1.18 ± 0.03	1.21 ± 0.068	1.21 ± 0.068	1.22 ± 0.09	1.19 ± 0.098	1.14 ± 0.016	1.13 ± 0.074	1.08 ± 0.0088
Cc1nc(-c2cn3c(n2)-c2ccc(-c4cnn(C(C)(C)C(N)=O)c4)cc2OCC3)n(C(C)C)n1 [Taselisib]	1.09 ± 0.027	1.1 ± 0.036	1.06 ± 0.019	1.01 ± 0.027	0.923 ± 0.036	0.75 ± 0.021	0.634 ± 0.009	0.549 ± 0.017	0.477 ± 0.0088	0.445 ± 0.026	0.451 ± 0.015
CN1CCC(COc2cnc(-c3cccc(Cn4nc(-c5cccc(C#N)c5)ccc4=O)c3)nc2)CC1 [Tepotinib]	1.11 ± 0.034	1.21 ± 0.032	1.14 ± 0.055	1.16 ± 0.039	1.16 ± 0.043	1.15 ± 0.065	1.18 ± 0.067	1.16 ± 0.096	1.14 ± 0.08	1.1 ± 0.044	0.865 ± 0.047
CNC(=O)c1cc(Oc2ccc(NC(=O)Nc3ccc(Cl)c(C(F)(F)F)c3)c(F)c2)ccn1 [Regorafenib]	1.194 ± 0.0028	1.23 ± 0.02	1.22 ± 0.013	1.24 ± 0.049	1.21 ± 0.036	1.15 ± 0.031	1.21 ± 0.049	1.24 ± 0.036	1.32 ± 0.054	1.3 ± 0.03	0.772 ± 0.016
CCCS(=O)(=O)Nc1ccc(F)c(C(=O)c2c[nH]c3ncc(-c4ccc(Cl)cc4)cc23)c1F [Vemurafenib]	1.18 ± 0.038	1.26 ± 0.02	1.18 ± 0.073	1.21 ± 0.054	1.205 ± 0.0029	1.18 ± 0.032	1.207 ± 0.0074	1.21 ± 0.034	1.21 ± 0.035	1.04 ± 0.033	0.804 ± 0.17
COc1c(OCCCN2CCOCC2)ccc2c1N=C(NC(=O)c1cnc(N)nc1)N1CCN=C21 [Copanlisib]	1.09 ± 0.061	1.12 ± 0.062	1 ± 0.026	0.7483 ± 0.0065	0.631 ± 0.025	0.516 ± 0.018	0.469 ± 0.011	0.435 ± 0.018	0.425 ± 0.017	0.403 ± 0.0053	0.368 ± 0.002
CC(=O)Nc1cccc(-n2c(=O)n(C3CC3)c(=O)c3c(Nc4ccc(I)cc4F)n(C)c(=O)c(C)c32)c1 [Trametinib]	1.16 ± 0.02	1.17 ± 0.045	1.19 ± 0.04	1.14 ± 0.035	1.05 ± 0.0092	0.859 ± 0.018	0.615 ± 0.0083	0.552 ± 0.011	0.511 ± 0.017	0.517 ± 0.0077	0.4614 ± 0.002
COCc1c(-c2cc3cc(C)cc(OC)c3s2)c2c(N)ncnn2c1CN1CCNC(=O)C1 [Rogaratinib]	1.11 ± 0.051	1.16 ± 0.028	1.16 ± 0.088	1.16 ± 0.043	1.15 ± 0.03	1.15 ± 0.018	1.12 ± 0.082	1.14 ± 0.061	1.09 ± 0.018	1.04 ± 0.019	0.898 ± 0.038
COc1cc2/c(=N/c3ccc(Br)cc3F)nc[nH]c2cc1OCC1CCN(C)CC1 [Vandetanib]	1.13 ± 0.018	1.09 ± 0.075	1.14 ± 0.035	1.12 ± 0.074	1.16 ± 0.033	1.16 ± 0.02	1.16 ± 0.069	1.168 ± 0.0075	1.15 ± 0.038	1.03 ± 0.054	0.132 ± 0.016
